The values that follow come from US20130158090A1, “METRONIDAZOLE ESTERS FOR TREATING ROSACEA” (GALDERMA RESEARCH & DEVELOPMENT, priority 2010, published 2013).

For series [1], the system named is oedema induced by TPA (phorbol 12-myristate-13-acetate) on mouse ear. As to the kind of experiment: Acute inflammation on mouse ear: oedema induced by TPA. It counts as in vivo. The settings on record: 6 hours after application. Here is the method:
The anti-inflammatory activities of the compound of formula (I) in racemic form, of the S enantiomer of the compound of formula (I), of metronidazole and of ibuprofen were measured in an in vivo test performed on a mouse model.
The model used is the model of mouse ear inflammation induced by a single application of TPA (phorbol 12-myristate-13-acetate). Female Balb/c ByJlco mice are used.
The oedema is induced by applying to the ear 20 μl of 0.01% TPA dissolved in ethanol.
The racemic compound of formula (I) is dissolved, at the desired concentration, in the 0.01% TPA solution and thus applied to a group of mice at the same time as the TPA.
The S enantiomer of the compound of formula (I) is dissolved, at the desired concentration, in the 0.01% TPA solution and thus applied to another group of mice at the same time as the TPA.
Similarly, ibuprofen (racemic) is dissolved, at the desired concentration, in the 0.01% TPA solution and is applied to another group of mice at the same time as the TPA. Finally, metronidazole is dissolved, at the desired concentration, in the 0.01% TPA solution and is applied to another group of mice at the same time as the TPA.
The oedema is evaluated, 6 hours after application of the test product, by measuring the thickness of the ear using an Oditest® micrometer.
The TPA-induced oedema is evaluated relative to the ethanol vehicle group. […]

Series [2] is described as follows: Stability on keratinocyte cultures. The format is in vitro ADME, human. The settings on record: human neonatal keratinocyte culture, 2 μM, degradation kinetics over 24 hours, LC/MS/MS; read-out: half-life time (t1/2) (converted). Here is the method: (§1) The stability on keratinocyte cultures is evaluated using human neonatal keratinocytes (Cell'N Tech) cultured in a 75 cm^2 flask and detached at 90-100% of confluence with vegetable trypsin (trypLE GIBCO). The compound of formula (I) was tested at 2 μM in the medium CNT-057 (Cell'N Tech) supplemented with 0.1% pluronic acid in 24-well plates. The final DMSO concentration is 0.1%. Degradation kinetics are performed with a Tecan EVO robot over 24 hours. The samples taken are then assayed by LC/MS/MS (Micromass) in comparison with a calibration range of the test product, prepared under the same conditions as the samples (⅓ culture medium and ⅔ methanol). The chromatographic conditions are optimized for each product. An assay of the appearance of metronidazole is also performed using these same samples.

Series [3] concerns oedema induced by arachidonic acid (AA) on mouse ear. As to the kind of experiment: Acute inflammation on mouse ear: arachidonic acid-induced oedema. To be noted: 1 hour after application. It counts as in vivo. Here is the method:
The anti-inflammatory activities of the compound of formula (I) in racemic form, of the S enantiomer of the compound of formula (I), of metronidazole and of ibuprofen were measured in an in vivo test performed on a mouse model. This model consists in inducing inflammation of the mouse ear with a single application of arachidonic acid (AA). Female Balb/c ByJlco mice are used. The oedema is induced by applying to the mouse's ear 20 μL of AA dissolved to 4% in a 1/1 THF/methanol mixture. The anti-inflammatory activities of the S enantiomer of the compound of formula (I), of the compound of formula (I) in racemic form, of metronidazole and of ibuprofen were evaluated after topical application onto the inner face of the mouse's ear of 20 μL of a solution of the compound in a 1/1 THF/methanol mixture containing 4% AA.
Solutions containing 0.01%; 0.03%; 0.1%; 0.3%; 1% and 2% of the test compound are thus prepared. The percentages correspond to the weight of the test compound per volume of solution. The oedema is evaluated, 1 hour after application, by measuring the thickness of the ear using an Oditest® micrometer. The oedema induced by AA alone is evaluated, 1 hour after application, by measuring the thickness of the ear using an Oditest® micrometer. It is evaluated relative to a group comprising only the vehicle (1/1 THF/methanol). […]

For series [4], the system named is human neonatal keratinocytes. As to the kind of experiment: Stability on keratinocyte cultures. The settings on record: human neonatal keratinocyte cultures, comparative esters. The format is in vitro ADME. Here is the method: as §1

Regarding `Cc1ncc([N+](=O)[O-])n1CCOC(=O)C(C)c1ccc(CC(C)C)cc1` (racemic) [racemic compound of formula (I), 2-(2-methyl-5-nitroimidazol-1-yl)ethyl 2-(4-isobutylphenyl)propionate], the “IC50 (concentration at which 50% inhibition of the oedema induced by TPA alone is observed)” value in series [1] (topical with 0.01% TPA) was 0.28%. For the same molecule, in series [2], the half-life at 2 μM is 3 h.
For the molecule `Cc1ncc([N+](=O)[O-])n1CCOC(=O)[C@@H](C)c1ccc(CC(C)C)cc1` [S enantiomer of the compound of formula (I), 2-(2-methyl-5-nitroimidazol-1-yl)ethyl (S)-2-(4-isobutylphenyl)propionate], in series [2], the half-life at 2 μM is 20 h. In addition, in series [3] (dose of 1% (w/v) topical on mouse ear), the “inhibition of the oedema induced by AA alone” value was 49%.
With `Cc1ncc([N+](=O)[O-])n1CCOC(=O)c1cc(-c2ccc(F)cc2F)ccc1O` [metronidazole ester with diflunisal], the “hydrolysis / stability on keratinocyte cultures” value in series [4] is “do not become hydrolysed”.
`COc1ccc2c(c1)c(CC(=O)OCCn1c([N+](=O)[O-])cnc1C)c(C)n2C(=O)c1ccc(Cl)cc1` [metronidazole ester with indomethacin]: in series [4], the “hydrolysis / stability on keratinocyte cultures” value is “do not become hydrolysed”.
On the same count and under the same terms, to `Cc1ncc([N+](=O)[O-])n1CCOC(=O)C1CCn2c(C(=O)c3ccccc3)ccc21` (stereo not shown) [metronidazole ester with ketorolac] belongs “do not become hydrolysed”.
The same measure, in the same setting: under `Cc1ncc([N+](=O)[O-])n1CCOC(=O)c1cccnc1Nc1cccc(C(F)(F)F)c1` [metronidazole ester with niflumic acid] stands “do not become hydrolysed”.
In the case of `Cc1ncc([N+](=O)[O-])n1CCO` [metronidazole], the anti-inflammatory activity result is given as “no anti-inflammatory activity” in series [1] (topical) and “no anti-inflammatory activity” in series [3] (AA-induced mouse ear oedema, topical).
